Legend:
[1] = biological target: T1, human NTPDase3 (Homo sapiens, UniProt O75355); settings: analogue 100 μM as substrate; activity with 100 μM ATP set as 100%
T1 sequence (O75355 1-529): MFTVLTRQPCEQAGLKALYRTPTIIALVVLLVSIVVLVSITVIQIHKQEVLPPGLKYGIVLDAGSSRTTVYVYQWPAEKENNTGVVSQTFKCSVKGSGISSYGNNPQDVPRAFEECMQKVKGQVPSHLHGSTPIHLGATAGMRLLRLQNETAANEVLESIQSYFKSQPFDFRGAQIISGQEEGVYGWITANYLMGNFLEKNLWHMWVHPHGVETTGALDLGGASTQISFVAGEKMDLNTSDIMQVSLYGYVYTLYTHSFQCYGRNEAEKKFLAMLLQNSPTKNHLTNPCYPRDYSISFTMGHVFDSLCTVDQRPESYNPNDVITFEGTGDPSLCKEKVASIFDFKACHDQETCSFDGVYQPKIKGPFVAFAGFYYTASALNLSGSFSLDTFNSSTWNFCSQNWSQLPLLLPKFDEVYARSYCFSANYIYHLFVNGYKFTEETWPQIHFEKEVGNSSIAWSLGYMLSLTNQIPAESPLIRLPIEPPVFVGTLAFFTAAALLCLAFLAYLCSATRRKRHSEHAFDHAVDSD

[2] = biological target: T2, human NPP1 (Homo sapiens, UniProt P22413); assay: Inhibition of NPP1, ATP as substrate; format: biochemical; settings: analogue 100 μM, ATP 100 μM
T2 sequence (P22413 1-925): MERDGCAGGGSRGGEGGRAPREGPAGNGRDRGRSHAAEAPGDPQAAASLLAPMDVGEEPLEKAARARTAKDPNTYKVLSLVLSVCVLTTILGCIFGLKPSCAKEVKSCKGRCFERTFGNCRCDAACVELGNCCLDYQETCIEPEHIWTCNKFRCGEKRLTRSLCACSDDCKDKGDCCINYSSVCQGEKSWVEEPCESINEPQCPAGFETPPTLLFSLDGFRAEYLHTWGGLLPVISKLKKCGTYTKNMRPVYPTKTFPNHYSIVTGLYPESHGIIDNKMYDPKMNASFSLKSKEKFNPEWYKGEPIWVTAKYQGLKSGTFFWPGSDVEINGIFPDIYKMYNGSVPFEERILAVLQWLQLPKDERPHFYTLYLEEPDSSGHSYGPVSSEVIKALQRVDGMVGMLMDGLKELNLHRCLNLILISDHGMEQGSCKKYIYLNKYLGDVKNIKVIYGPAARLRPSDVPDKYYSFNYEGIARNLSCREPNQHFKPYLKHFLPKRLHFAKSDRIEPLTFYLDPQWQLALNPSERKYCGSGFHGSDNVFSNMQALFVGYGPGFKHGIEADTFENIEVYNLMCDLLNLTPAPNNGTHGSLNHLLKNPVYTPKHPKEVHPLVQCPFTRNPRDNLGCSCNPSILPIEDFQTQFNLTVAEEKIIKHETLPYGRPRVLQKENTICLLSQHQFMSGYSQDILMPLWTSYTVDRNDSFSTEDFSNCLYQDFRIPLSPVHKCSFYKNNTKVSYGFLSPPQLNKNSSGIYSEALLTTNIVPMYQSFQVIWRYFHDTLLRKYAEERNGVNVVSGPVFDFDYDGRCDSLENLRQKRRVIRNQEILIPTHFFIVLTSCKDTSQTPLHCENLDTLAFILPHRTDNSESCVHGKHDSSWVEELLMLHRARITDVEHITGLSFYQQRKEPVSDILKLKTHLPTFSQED

[3] = biological target: T3, TNAP (Homo sapiens, UniProt P05186); assay: TNAP stability assay: hydrolysis by TNAP; format: in vitro ADME; settings: 1 h, pH 9, 100 μM (data not shown)
T3 sequence (P05186 18-502 limits assumed): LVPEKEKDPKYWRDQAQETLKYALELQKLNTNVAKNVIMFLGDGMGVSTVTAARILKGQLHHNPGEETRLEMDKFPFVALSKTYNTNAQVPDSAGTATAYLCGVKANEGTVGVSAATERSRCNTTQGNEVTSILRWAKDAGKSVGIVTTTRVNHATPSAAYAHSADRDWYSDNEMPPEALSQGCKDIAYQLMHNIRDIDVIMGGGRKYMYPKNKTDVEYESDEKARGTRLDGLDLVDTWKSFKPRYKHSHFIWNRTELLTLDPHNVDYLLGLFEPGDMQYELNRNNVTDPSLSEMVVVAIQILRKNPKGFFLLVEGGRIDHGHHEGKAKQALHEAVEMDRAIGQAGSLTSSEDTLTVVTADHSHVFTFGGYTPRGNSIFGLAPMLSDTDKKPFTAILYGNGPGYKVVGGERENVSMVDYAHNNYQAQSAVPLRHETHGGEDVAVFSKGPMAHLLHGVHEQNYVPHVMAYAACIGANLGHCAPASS

[4] = biological target: T4, human NTPDase8 (Homo sapiens, UniProt Q5MY95); settings: analogue 100 μM as substrate; activity with 100 μM ATP set as 100%
T4 sequence (Q5MY95 1-495): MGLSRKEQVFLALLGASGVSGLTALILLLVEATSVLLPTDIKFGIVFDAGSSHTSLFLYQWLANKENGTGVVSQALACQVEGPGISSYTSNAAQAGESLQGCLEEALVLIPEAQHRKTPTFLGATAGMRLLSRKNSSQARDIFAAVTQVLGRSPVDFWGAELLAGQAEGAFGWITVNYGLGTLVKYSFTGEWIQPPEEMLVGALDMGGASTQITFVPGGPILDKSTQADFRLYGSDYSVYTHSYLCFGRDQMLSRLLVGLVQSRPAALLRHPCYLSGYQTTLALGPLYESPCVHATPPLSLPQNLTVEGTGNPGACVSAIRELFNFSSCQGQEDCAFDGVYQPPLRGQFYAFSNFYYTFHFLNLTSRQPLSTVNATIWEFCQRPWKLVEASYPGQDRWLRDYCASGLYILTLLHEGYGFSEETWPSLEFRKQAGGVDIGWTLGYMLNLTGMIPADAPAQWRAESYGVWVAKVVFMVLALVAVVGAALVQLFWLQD

[5] = biological target: T3, TNAP; assay: Inhibition of TNAP activity; format: biochemical; settings: analogue 100 μM

Compound | relative activity (%) ± SD of ATP hydrolysis, NTPDase3 [1] | inhibition of ATP hydrolysis by NPP1 [2] | hydrolysis by TNAP [3] | relative activity (%) ± SD of ATP hydrolysis, NTPDase8 [4] | inhibition of TNAP [5]
Nc1ncnc2c1ncn2[C@@H]1O[C@H](COP(=O)(O)CP(=O)(O)OP(O)(O)=S)[C@@H](O)[C@H]1O [compound 3] | 4.8 ± 0.2% | about 90% | 2.5% | 5.2 ± 0.2% | 8–17%
Nc1ncnc2c1ncn2[C@@H]1O[C@H](CO[P@](O)(=S)OP(=O)(O)C(Cl)(Cl)P(=O)(O)O)[C@@H](O)[C@H]1O [2a] | 5.2 ± 0.2% | about 90% | fully stable | 4.3 ± 0.1% | 8–17%

Source: PMC4363092 (Journal of medicinal chemistry, 2014)
